Earlier results in article PMC7751758, “Repurposing Sigma-1 Receptor Ligands for COVID-19 Therapy?” (Frontiers in Pharmacology, 2020).
Values joined by “and” are separate entries in the source; they are usually repeats but may differ in a detail not shown here. Identical values can stand only once. “Also recorded” adds a separate entry of the source.

What was measured:
[1] = test system: EBOV
[2] = target: Sigma-1 receptor; conditions: for IC50: read-out: Sigma-1 receptor affinity IC50; for Ki: read-out: Sigma-1 receptor affinity Ki
[3] = test system: HCV infection of human hepatocarcinoma Huh-7 cells; conditions: absence of cytotoxicity at low micromolar and submicromolar concentrations; ref Gastaminza et al., 2010
[4] = test system: SARS-CoV
[5] = test system: MERS-CoV
[6] = test system: HCV-induced cytopathic effect on the engineered cell line n4mBid; conditions: leads of the cell protection screen; ref Chockalingam et al., 2010
[7] = test system: HCV infection; conditions: without significantly reducing cell biomass; ref Mingorance et al., 2014

In the case of `COc1ccc(CN2CCN(C(c3ccc(F)cc3)c3ccc(F)cc3)CC2)c(OC)c1OC` [Lomerizine], the “Antiviral activity: Virus” value [1] is given as “active” and the IC50 [2] is given as 0.037 µM.
For `CN(C)CCOc1ccc(/C(=C(/CCCl)c2ccccc2)c2ccccc2)cc1` [Toremifene], the “reduction in HCV infection of Huh-7 cells, as compared to the vehicle DMSO control” value [3] is given as greater than 85%, the “Antiviral activity: Virus” value [1] is given as “active” and the IC50 [2] is given as 0.22 µM. The “Antiviral activity: Virus” value [4] was “in vitro activity; also recorded: SARS-CoV SARS-CoV-2” and the “Antiviral activity: Virus” value [5] was “in vitro activity”.
In the case of `Cc1nc2sccn2c(=O)c1CCN1CCC(=C(c2ccc(F)cc2)c2ccc(F)cc2)CC1` [Ritanserin], the IC50 [2] is listed as 0.19 µM and the “alleviation of HCV-induced cytopathic effect (n4mBid cell viability relative to untreated cells)” value [6] is listed as “increase n4mBid cell viability”.
For `OC(CCN1CCCCC1)(c1ccccc1)C1CC2C=CC1C2` (stereo not drawn) [biperiden], the “alleviation of HCV-induced cytopathic effect (n4mBid cell viability relative to untreated cells)” value [6] is listed as “increase n4mBid cell viability”.
For `COc1ccc(CCN2CCC(Nc3nc4ccccc4n3Cc3ccc(F)cc3)CC2)cc1` [Astemizole], the “Antiviral activity: Virus” value [1] is given as “active”, the “Antiviral activity: Virus” value [4] is given as “in vitro activity” and the “Antiviral activity: Virus” value [5] is given as “in vitro activity”.
In the case of `CC(C)N1CCN(c2ccc(OCC3COC(Cn4cncn4)(c4ccc(Cl)cc4Cl)O3)cc2)CC1` (stereo not drawn) [Terconazole], the “Antiviral activity: Virus” value [1] is listed as “active”, the IC50 [2] is listed as 0.159 µM and the “Antiviral activity: Virus” value [4] is listed as “in vitro activity; also recorded: SARS-CoV SARS-CoV-2”. For the same compound, the “Antiviral activity: Virus” value [5] was “in vitro activity”.
For `CC(C)(C)[C@]1(O)CCN2C[C@H]3c4ccccc4CCc4cccc(c43)[C@@H]2C1` [butaclamol], the “alleviation of HCV-induced cytopathic effect (n4mBid cell viability relative to untreated cells)” value [6] is listed as “increase n4mBid cell viability”.
In the case of `OCCN1CCN(CCCN2c3ccccc3Sc3ccc(C(F)(F)F)cc32)CC1` [Fluphenazine], the “reduction in HCV infection of Huh-7 cells, as compared to the vehicle DMSO control” value [3] is listed as greater than 85%, the “Antiviral activity: Virus” value [1] is listed as “active” and the “Antiviral activity: Virus” value [4] is listed as “in vitro activity; also recorded: SARS-CoV SARS-CoV-2”. The “Antiviral activity: Virus” value [5] was “in vitro activity”.
For `CN(C)CCCN1c2ccccc2CCc2ccccc21` [Imipramine], the “reduction of HCV infection” value [7] is given as “more than one order of magnitude”, the IC50 [2] is given as 0.529 µM and the Ki [2] is given as 0.343 µM.
For `CNCCC(Oc1ccc(C(F)(F)F)cc1)c1ccccc1` (stereo not drawn) [Fluoxetine], the “reduction of HCV infection” value [7] is listed as “more than one order of magnitude”.
For `CC(=O)c1ccc2c(c1)N(CCCN1CCC(CCO)CC1)c1ccccc1S2` [Piperacetazine], the “Antiviral activity: Virus” value [1] is listed as “active” and the IC50 [2] is listed as 0.823 µM.
In the case of `Oc1cc2c(cc1O)C(c1ccccc1)CNCC2` (stereo not drawn) [SKF-38393], the “alleviation of HCV-induced cytopathic effect (n4mBid cell viability relative to untreated cells)” value [6] is listed as “increase n4mBid cell viability”.
For `CN(C)CCCN1c2ccccc2Sc2ccc(C(F)(F)F)cc21` [Triflupromazine], the IC50 [2] is listed as 0.47 µM and 0.605 µM, the Ki [2] is listed as 0.154 µM and the “Antiviral activity: Virus” value [4] is listed as “in vitro activity”. For the same compound, the “alleviation of HCV-induced cytopathic effect (n4mBid cell viability relative to untreated cells)” value [6] was “increase n4mBid cell viability” and the “Antiviral activity: Virus” value [5] was “in vitro activity”.
For `CNCCCC12CCC(c3ccccc31)c1ccccc12` [Maprotiline], the “Antiviral activity: Virus” value [1] is listed as “active”.
For `CCN(CC)CCCC(C)Nc1c2ccc(Cl)cc2nc2ccc(OC)cc12` (stereo not drawn) [Quinacrine], the “Antiviral activity: Virus” value [1] is listed as “active” and the IC50 [2] is listed as 0.953 µM.
For `CNCCCC1c2ccccc2C=Cc2ccccc21` [Protriptyline], the IC50 [2] is listed as 0.307 µM and the “alleviation of HCV-induced cytopathic effect (n4mBid cell viability relative to untreated cells)” value [6] is listed as “increase n4mBid cell viability”.
In the case of `OCCOCCN1CCN(C(c2ccccc2)c2ccc(Cl)cc2)CC1` (stereo not drawn) [Hydroxyzine], the “reduction of HCV infection” value [7] is given as “more than one order of magnitude”, the IC50 [2] is given as 0.342 µM and the Ki [2] is given as 0.046 µM.
For `CNCCCN1c2ccccc2CCc2ccccc21` [Desipramine], the “reduction of HCV infection” value [7] is given as “more than one order of magnitude”, the IC50 [2] is given as 1.19 µM and the Ki [2] is given as 1.99 µM.
In the case of `Cl.Cl.OCCN1CCN(CCC=C2c3ccccc3Sc3ccc(C(F)(F)F)cc32)CC1` (mixture of isomers) [Flupentixol], the “Antiviral activity: Virus” value [1] is listed as “active”.
In the case of `O=[N+]([O-])c1ccc2nc(N3CCNCC3)ccc2c1` [Quipazine-6N], the IC50 [2] is listed as 1.25 µM and the “alleviation of HCV-induced cytopathic effect (n4mBid cell viability relative to untreated cells)” value [6] is listed as “increase n4mBid cell viability”.
